According to patent US20260263495A1, “METHODS AND BIOAVAILABLE HIGHLY PERMEABLE COMPOUNDS FOR DISEASES TREATMENT” (priority 2024, published 2026):

Tests used:
[1] = API concentration in the blood plasma of cattle after oral administration; format: in vivo; conditions: 600 μg/kg (per pure IVM)
Experimental: Free ivermectin substance was processed in planetary mill, the parameters were as follows: weight of the material—5 g, grinding jar volume—200 mL, grinding media—steel balls (diameter 8 mm, 90.0 g load), processing time—20 minutes. Compound of Formula I was treated according to Example 1 No21.
Cattle were divided into 2 groups of 1 animals each. Free Ivermectin (IVM) and compound of Formula I were orally administered to starving cattle. Blood samples were withdrawn from the jugular vein at appropriate time intervals after administration (0, 4, 20 h).
Ivermectin concentrations in blood plasma were analyzed according to the method Na-Bangchang, K., High-performance liquid chromatographic method for the determination of ivermectin in plasma, Southeast Asian J Trop Med Public Health, 2006 September, 37(5):848-58, PMID: 17333725.
The internal standard (moxidectin) was separated from ivermectin on a Hypersil Gold C18 column(150×4.6 mm, […]), with retention time of 3.7 and 7.0 minutes, respectively. Fluorescence detection was set at an excitation and emission wavelength of 365 and 475 nm, respectively. The mobile phase consisted of acetonitrile, methanol and distilled water (50:45:5,v/v/v), running through the column at a flow rate of 1.5 ml/minute. The chromatographic analysis was operated at 25° C. Sample preparation (100 μl plasma) was done by a single step protein precipitation with acetonitrile, followed by derivatization with 100 μl of N-methylimidazolesolution in acetonitrile (1:1, v/v) and 150 μl of trifluoroacetic anhydrous solution in acetonitrile(1:2, v/v). Calibration curve over the concentration range of 20-8,000 ng/ml plasma was linear with correlation coefficient better than 0.995.
All the blood samples were centrifuged at 3000 rpm for 15 min to obtain […]. Cattle plasma samples (100 μL each) were placed in 1.5 mL Eppendorf tubes, and then the samples underwent protein precipitation. The samples were vortexed for 1 min and centrifuged at 13,400 rpm for 10 min 20 μL of the supernatant was injected into the HPLC.

[2] = tested on: SARS-CoV-2; conditions: reference level compared with the lung Cmax; read-out: EC 50 for SARS-CoV-2; cited from earlier work
[3] = tested on: monolayer of Caco-2 cells; test: Permeability of solid dispersion aqueous solution on the Caco-2 cell line; conditions: Caco-2 monolayer, 3 μM (per pure IVM) in HBSS on top, compound of Formula I = Example 1 No 2

CC[C@H](C)[C@H]1O[C@]2(CC[C@@H]1C)C[C@@H]1C[C@@H](C/C=C(\C)[C@@H](O[C@H]3C[C@H](OC)[C@@H](O[C@H]4C[C@H](OC)[C@@H](O)[C@H](C)O4)[C@H](C)O3)[C@@H](C)/C=C/C=C3\CO[C@@H]4[C@H](O)C(C)=C[C@@H](C(=O)O1)[C@]34O)O2 [IVM, Ivermectin]
Cmax [1]: 350 ± 50 nM
C1, 0 h, ivermectin concentration in plasma ([1]; 0 h, compound of Formula I treated according to Example 1 No21): 0 ± 0.15 ng/mL
C2, 4 h, ivermectin concentration in plasma ([1]; 4 h, compound of Formula I treated according to Example 1 No21): 307.3 ± 46.1 ng/mL
C3, 20 h, ivermectin concentration in plasma ([1]; 20 h, compound of Formula I treated according to Example 1 No21): 104.4 ± 15.6 ng/mL
Cmax in lung calculated by plasma-lung ratio 2.67 ([1]; calculated from plasma Cmax): 930 ± 140 nM
EC50 [2]: 2400 nM
Concentrartion of IVM at the bottom of the well ([3]; 20 min): 50 ng/mL
Concentrartion of IVM at the bottom of the well ([3]; 40 min): 90 ng/mL
Concentrartion of IVM at the bottom of the well ([3]; 60 min): 150 ng/mL
Concentrartion of IVM at the bottom of the well ([3]; 80 min): 190 ng/mL
Concentrartion of IVM at the bottom of the well ([3]; 100 min): 210 ng/mL
Concentrartion of IVM at the bottom of the well ([3]; 120 min): 250 ng/mL
